Measurements taken from patent US10870647B2, “Imidazopyridine derivative, method for preparing same, and pharmaceutical composition containing same as active ingredient for preventing or treating cancer” (DAEGU-GYEONGBUK MEDICAL INNOVATION FOUNDATION, priority 2016, dated 2020).

Assays:
Experiment in all cases: Kinase selectivity, scanMAX Kinase assay panel (DiscoverX), % control at 1 uM
Format in all cases: binding
[1] = biological target: T1, scanMAX Kinase assay panel (Homo sapiens, UniProt Q9HBY8); conditions: SGK2; 1 uM; read-out: Percent Control (%)
T1 construct: purchased DiscoverX
T1 sequence (Q9HBY8 1-367): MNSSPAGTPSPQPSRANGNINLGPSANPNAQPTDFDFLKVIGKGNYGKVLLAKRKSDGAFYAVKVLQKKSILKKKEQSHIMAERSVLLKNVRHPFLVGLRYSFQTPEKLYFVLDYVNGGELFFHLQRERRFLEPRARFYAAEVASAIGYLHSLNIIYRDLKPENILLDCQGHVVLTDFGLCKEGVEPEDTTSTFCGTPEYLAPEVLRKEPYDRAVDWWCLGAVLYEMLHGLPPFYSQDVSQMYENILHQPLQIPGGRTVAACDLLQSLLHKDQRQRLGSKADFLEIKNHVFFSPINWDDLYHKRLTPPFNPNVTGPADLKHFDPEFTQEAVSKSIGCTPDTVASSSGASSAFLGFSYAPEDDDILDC
Outline: (§1)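 Compounds were tested at 1 uM in DMSO against each enzyme in the panel. Percent control was calculated as (compound − positive control)/(negative control − positive control) × 100, and a compound was scored active on a kinase when this value fell below 35.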

[2] = biological target: T2, scanMAX Kinase assay panel (Homo sapiens, UniProt O96017); conditions: CHEK2; 1 uM; read-out: Percent Control (%)
T2 construct: purchased DiscoverX
Outline: as §1

[3] = biological target: T3, scanMAX Kinase assay panel (Homo sapiens, UniProt P51817); conditions: PRKX; 1 uM; read-out: Percent Control (%)
T3 construct: purchased DiscoverX
T3 sequence (P51817 1-358): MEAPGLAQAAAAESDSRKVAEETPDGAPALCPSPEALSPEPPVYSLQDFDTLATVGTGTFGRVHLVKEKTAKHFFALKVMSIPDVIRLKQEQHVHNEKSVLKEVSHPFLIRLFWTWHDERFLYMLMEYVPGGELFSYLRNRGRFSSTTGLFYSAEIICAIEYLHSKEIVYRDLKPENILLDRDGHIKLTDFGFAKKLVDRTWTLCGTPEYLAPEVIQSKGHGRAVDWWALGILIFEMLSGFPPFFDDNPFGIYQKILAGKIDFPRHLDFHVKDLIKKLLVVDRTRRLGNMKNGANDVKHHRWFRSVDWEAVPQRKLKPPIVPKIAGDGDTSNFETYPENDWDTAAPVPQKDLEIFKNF
Outline: as §1

[4] = biological target: T4, scanMAX Kinase assay panel (Homo sapiens, UniProt P06213); conditions: INSR; 1 uM; read-out: Percent Control (%)
T4 construct: purchased DiscoverX
Outline: as §1

[5] = biological target: T5, scanMAX Kinase assay panel (Homo sapiens, UniProt Q9BYP7); conditions: WNK3; 1 uM; read-out: Percent Control (%)
T5 construct: purchased DiscoverX
Outline: as §1

[6] = biological target: T6, scanMAX Kinase assay panel (Homo sapiens, UniProt P37173); conditions: TGFBR2; 1 uM; read-out: Percent Control (%)
T6 construct: purchased DiscoverX
Outline: as §1

[7] = biological target: T7, scanMAX Kinase assay panel (Homo sapiens, UniProt Q9UIK4); conditions: DAPK2; 1 uM; read-out: Percent Control (%)
T7 construct: purchased DiscoverX
Outline: as §1

[8] = biological target: T8, scanMAX Kinase assay panel (Homo sapiens, UniProt Q6P2M8); conditions: CAMK1B; 1 uM; read-out: Percent Control (%)
T8 construct: purchased DiscoverX
Outline: as §1

[9] = biological target: T9, scanMAX Kinase assay panel (Homo sapiens, UniProt P28482); conditions: ERK2; 1 uM; read-out: Percent Control (%)
T9 construct: purchased DiscoverX
Outline: as §1

[10] = biological target: T10, scanMAX Kinase assay panel (Homo sapiens, UniProt P22607); conditions: FGFR3; 1 uM; read-out: Percent Control (%)
T10 construct: purchased DiscoverX
Outline: as §1

[11] = biological target: T11, scanMAX Kinase assay panel (Homo sapiens, UniProt Q07002); conditions: PCTK3; 1 uM; read-out: Percent Control (%)
T11 construct: purchased DiscoverX
Outline: as §1

[12] = biological target: T12, scanMAX Kinase assay panel (Homo sapiens, UniProt Q96BR1); conditions: SGK3; 1 uM; read-out: Percent Control (%)
T12 construct: purchased DiscoverX
T12 sequence (Q96BR1 1-496): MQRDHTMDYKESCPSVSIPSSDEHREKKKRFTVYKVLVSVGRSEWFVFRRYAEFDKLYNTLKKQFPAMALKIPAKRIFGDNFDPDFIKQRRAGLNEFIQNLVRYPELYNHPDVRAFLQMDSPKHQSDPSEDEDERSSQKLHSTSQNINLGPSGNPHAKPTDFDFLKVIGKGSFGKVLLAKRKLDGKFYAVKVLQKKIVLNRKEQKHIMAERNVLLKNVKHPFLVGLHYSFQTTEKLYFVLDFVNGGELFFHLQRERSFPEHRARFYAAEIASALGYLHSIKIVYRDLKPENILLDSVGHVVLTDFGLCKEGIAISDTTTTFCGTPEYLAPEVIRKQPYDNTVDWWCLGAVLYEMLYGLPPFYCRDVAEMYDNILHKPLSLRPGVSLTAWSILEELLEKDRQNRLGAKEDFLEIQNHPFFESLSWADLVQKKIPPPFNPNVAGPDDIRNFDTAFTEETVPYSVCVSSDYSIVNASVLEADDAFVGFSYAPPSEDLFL
Outline: as §1

[13] = biological target: T13, scanMAX Kinase assay panel (Homo sapiens, UniProt Q8IVW4); conditions: CDKL3; 1 uM; read-out: Percent Control (%)
T13 construct: purchased DiscoverX
Outline: as §1

[14] = biological target: T14, scanMAX Kinase assay panel (Homo sapiens, UniProt Q8WU08); conditions: YANK1; 1 uM; read-out: Percent Control (%)
T14 construct: purchased DiscoverX
Outline: as §1

[15] = biological target: T15, scanMAX Kinase assay panel (Homo sapiens, UniProt P19784); conditions: CSNK2A2; 1 uM; read-out: Percent Control (%)
T15 construct: purchased DiscoverX
Outline: as §1

[16] = biological target: T16, scanMAX Kinase assay panel (Homo sapiens, UniProt P49137); conditions: MAPKAPK2; 1 uM; read-out: Percent Control (%)
T16 construct: purchased DiscoverX
Outline: as §1

[17] = biological target: T17, scanMAX Kinase assay panel (Homo sapiens, UniProt P42336, E545A); conditions: PIK3CA (E545A); 1 uM; read-out: Percent Control (%)
T17 construct: purchased DiscoverX
Outline: as §1

T8 sequence (Q6P2M8 whole entry): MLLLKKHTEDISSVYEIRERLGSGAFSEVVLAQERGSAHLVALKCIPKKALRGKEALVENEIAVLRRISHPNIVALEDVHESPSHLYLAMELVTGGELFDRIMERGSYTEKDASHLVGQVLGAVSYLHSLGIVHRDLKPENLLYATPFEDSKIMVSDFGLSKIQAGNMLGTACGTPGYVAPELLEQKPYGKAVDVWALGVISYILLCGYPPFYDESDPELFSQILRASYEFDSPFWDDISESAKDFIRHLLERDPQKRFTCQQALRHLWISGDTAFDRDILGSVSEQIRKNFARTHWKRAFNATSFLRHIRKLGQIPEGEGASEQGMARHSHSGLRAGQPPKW
T15 sequence (P19784 whole entry): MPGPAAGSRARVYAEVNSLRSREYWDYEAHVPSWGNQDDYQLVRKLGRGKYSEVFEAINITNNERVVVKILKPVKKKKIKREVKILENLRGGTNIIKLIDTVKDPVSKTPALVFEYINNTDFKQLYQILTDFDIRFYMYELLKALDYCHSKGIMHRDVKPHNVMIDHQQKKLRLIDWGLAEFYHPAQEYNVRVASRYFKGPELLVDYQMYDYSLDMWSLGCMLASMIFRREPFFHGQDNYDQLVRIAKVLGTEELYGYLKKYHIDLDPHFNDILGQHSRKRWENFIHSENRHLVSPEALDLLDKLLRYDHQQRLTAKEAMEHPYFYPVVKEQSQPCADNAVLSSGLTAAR
T10 sequence (P22607 23-806): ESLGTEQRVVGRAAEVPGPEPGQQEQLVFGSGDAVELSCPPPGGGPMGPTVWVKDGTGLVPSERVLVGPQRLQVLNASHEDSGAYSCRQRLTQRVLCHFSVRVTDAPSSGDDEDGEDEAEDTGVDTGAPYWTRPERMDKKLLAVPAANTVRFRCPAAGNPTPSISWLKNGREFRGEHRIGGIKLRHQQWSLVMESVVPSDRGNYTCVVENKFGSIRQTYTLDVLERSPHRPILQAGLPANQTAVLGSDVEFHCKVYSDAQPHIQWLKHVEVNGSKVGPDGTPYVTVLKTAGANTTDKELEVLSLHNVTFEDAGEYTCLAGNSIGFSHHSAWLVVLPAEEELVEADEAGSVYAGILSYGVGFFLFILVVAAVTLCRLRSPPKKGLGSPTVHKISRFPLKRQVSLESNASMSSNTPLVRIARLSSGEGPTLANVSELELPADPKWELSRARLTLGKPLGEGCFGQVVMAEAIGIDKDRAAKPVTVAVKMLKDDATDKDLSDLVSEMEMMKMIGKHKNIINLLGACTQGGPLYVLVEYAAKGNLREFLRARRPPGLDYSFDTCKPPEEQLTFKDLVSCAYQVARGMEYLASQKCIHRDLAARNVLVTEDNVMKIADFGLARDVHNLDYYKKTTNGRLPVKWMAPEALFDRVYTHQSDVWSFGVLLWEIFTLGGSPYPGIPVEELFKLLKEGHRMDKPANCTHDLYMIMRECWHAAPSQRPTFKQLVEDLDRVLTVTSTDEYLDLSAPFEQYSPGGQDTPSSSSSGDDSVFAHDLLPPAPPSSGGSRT
T17 sequence (P42336 whole entry E545A): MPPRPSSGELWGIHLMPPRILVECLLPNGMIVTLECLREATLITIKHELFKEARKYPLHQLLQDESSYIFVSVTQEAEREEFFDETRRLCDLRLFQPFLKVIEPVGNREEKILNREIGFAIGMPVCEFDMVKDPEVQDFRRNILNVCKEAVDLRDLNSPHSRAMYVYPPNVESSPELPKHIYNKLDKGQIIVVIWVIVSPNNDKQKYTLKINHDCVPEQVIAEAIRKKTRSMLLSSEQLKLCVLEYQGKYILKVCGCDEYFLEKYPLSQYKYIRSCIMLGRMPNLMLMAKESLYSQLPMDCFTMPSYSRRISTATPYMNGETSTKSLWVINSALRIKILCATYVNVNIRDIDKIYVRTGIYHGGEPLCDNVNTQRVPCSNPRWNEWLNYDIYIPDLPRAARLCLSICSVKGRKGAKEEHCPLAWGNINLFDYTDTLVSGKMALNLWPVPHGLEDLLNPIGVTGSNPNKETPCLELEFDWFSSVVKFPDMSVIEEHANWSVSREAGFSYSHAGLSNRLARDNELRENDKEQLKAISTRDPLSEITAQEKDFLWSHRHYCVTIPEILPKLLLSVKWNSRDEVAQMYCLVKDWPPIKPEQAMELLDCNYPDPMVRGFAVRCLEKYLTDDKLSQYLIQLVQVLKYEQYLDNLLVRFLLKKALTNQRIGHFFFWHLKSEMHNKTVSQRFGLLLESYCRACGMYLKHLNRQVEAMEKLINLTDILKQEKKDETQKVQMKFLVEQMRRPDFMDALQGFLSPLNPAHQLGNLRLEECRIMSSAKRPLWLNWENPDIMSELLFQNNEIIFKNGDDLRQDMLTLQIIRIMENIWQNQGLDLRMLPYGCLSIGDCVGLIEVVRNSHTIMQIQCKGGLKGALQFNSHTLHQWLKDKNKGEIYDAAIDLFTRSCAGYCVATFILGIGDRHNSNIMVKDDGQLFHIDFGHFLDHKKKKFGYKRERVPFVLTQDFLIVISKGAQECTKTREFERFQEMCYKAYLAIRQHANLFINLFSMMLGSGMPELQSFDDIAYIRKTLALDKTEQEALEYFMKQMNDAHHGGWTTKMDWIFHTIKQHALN
T5 sequence (Q9BYP7 whole entry): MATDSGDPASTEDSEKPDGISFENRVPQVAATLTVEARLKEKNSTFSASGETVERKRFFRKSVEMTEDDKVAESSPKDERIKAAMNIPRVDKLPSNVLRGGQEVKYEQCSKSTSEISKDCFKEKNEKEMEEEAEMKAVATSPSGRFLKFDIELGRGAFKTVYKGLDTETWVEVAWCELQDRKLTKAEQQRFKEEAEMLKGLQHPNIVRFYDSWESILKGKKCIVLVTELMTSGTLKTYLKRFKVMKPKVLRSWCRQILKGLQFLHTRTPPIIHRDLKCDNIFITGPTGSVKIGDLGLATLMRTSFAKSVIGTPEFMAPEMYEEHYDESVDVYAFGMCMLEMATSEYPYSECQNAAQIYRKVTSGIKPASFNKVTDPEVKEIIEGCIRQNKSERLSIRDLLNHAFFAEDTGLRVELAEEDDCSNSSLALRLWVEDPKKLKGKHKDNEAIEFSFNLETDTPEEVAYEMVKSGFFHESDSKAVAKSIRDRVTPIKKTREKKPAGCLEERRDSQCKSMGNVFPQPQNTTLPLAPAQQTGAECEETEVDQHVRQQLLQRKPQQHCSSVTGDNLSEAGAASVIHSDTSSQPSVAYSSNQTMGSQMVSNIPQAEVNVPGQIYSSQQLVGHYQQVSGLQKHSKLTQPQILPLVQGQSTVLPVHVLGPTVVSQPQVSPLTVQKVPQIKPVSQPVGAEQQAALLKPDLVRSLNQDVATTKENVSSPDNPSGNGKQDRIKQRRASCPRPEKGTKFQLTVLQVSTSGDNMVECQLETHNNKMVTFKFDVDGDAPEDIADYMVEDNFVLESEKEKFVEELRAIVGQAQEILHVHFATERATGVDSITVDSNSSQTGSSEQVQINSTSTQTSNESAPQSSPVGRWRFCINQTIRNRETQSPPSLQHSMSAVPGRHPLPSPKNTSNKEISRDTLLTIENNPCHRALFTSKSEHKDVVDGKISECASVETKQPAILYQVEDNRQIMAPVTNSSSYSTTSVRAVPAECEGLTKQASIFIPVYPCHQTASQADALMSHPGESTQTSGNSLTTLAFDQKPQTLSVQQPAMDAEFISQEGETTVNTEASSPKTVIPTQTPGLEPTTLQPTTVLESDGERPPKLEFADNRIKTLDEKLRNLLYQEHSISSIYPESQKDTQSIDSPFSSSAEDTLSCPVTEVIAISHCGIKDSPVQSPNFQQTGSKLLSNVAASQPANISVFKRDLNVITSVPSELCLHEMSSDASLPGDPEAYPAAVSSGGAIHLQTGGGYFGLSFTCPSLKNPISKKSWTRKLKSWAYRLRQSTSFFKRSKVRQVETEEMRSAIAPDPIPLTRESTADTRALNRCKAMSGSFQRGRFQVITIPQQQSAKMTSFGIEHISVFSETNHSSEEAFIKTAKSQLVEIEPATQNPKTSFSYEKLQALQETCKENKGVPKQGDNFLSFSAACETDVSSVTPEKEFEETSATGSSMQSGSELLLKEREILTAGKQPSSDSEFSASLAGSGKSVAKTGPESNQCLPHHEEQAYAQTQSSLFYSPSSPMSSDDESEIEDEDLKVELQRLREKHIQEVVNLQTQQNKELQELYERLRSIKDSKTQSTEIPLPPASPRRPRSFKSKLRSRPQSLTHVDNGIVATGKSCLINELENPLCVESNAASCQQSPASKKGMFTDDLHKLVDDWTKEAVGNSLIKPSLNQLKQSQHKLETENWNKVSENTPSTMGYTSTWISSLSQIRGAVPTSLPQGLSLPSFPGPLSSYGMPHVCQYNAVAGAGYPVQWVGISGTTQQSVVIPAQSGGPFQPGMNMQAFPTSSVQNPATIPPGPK
T14 sequence (Q8WU08 whole entry): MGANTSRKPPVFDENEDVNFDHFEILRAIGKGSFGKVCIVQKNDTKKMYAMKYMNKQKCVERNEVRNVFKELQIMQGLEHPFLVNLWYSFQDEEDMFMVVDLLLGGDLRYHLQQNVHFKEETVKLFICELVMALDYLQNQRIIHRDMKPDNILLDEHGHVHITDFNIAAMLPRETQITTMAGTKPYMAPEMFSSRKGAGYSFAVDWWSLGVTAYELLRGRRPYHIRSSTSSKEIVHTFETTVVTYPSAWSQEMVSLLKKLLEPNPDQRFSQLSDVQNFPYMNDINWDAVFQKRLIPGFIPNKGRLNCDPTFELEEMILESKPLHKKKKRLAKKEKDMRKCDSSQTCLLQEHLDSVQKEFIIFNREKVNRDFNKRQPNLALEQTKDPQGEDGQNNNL

Compound | remaining binding at 1 µM [1] [%] | remaining binding at 1 µM [2] [%] | remaining binding at 1 µM [3] [%] | remaining binding at 1 µM [4] [%] | remaining binding at 1 µM [5] [%] | remaining binding at 1 µM [6] [%] | remaining binding at 1 µM [7] [%] | remaining binding at 1 µM [8] [%] | remaining binding at 1 µM [9] [%] | remaining binding at 1 µM [10] [%] | remaining binding at 1 µM [11] [%] | remaining binding at 1 µM [12] [%] | remaining binding at 1 µM [13] [%] | remaining binding at 1 µM [14] [%] | remaining binding at 1 µM [15] [%] | remaining binding at 1 µM [16] [%] | remaining binding at 1 µM [17] [%]
Cc1ccc(C(=O)Nc2ccc(CN3CCN(C)CC3)c(C(F)(F)F)c2)cc1C#Cc1cnc2c(Nc3cnn(C)c3)cccn12 [Example 1, 4-methyl-3-((8-((1-methyl-1H-pyrazol-4-yl)amino)imidazo[1,2-a]pyridin-3-yl)ethynyl)-N-(4-((4-methylpiperazin-1-yl)methyl)-3-(trifluoromethyl)phenyl)benzamide] | 84 | 34 | 93 | 54 | 85 | 24 | 82 | 62 | 100 | 3 | 60 | 97 | 1 | 69 | 56 | 100 | 87
Cc1cn(-c2cc(NC(=O)c3ccc(C)c(C#Cc4cnc5c(Nc6cnn(C)c6)cccn45)c3)cc(C(F)(F)F)c2)cn1 [Example 12, 4-methyl-N-(3-(4-methyl-1H-imidazol-1-yl)-5-(trifluoromethyl)phenyl)-3-((8-((1-methyl-1H-pyrazol-4-yl)amino)imidazo[1,2-a]pyridin-3-yl)ethynyl)benzamide] | 100 | 84 | 97 | 99 | 100 | 94 | 97 | 100 | 92 | 33 | 84 | 100 | 53 | 98 | 98 | 81 | 79
Cc1ccc(NC(=O)C2(C(=O)Nc3ccc(F)cc3)CC2)cc1C#Cc1cnc2c(Nc3cnn(C(C)C)c3)cccn12 [Example 78] | 100 | 91 | 78 | 100 | 100 | 100 | 100 | 100 | 100 | 100 | 100 | 78 | 100 | 84 | 100 | 98 | 100
